How the values were obtained:
[1] = tested on: washed platelets; test: Platelet Agglutination Inhibition (P.A.), collagen-induced; assay type: cell-based, human (healthy person); settings: Homo sapiens, washed platelets, collagen, 37° C., read-out: P.A. (IC50)
Protocol: To this suspension was added one sixth volume of ACD solution, and the whole was further centrifuged at 1500×G for 5 minutes to prepare a platelet pellet. The platelet pellet was then suspended in a modified HEPES Tyrode solution to obtain about 3×10^5 /μl in washed platelet suspension.
To 270 μl of the washed platelet suspension was added 3 μl of a solution of a test compound dissolved in an appropriate medium in different concentration, and the mixture was pre-incubated at 37° C. for 2 minutes.
As a control, the above-mentioned procedure was carried out except that the test medium without a test compound was used, and the absorbance before addition of collagen and the maximum absorbance after addition of collagen were measured, and the difference between both absorbances was taken as 100% agglutination.
For test compound, the absorbance before an addition of collagen and the maximum absorbance after an addition of collagen were measured, and a percent of the inhibition was determined, compared with the control.

[2] = tested on: superior mesenteric artery (contracted by potassium chloride); test: Vessel Smooth Muscle Relaxation Action (V.R.); assay type: cell-based, rabbit; settings: Oryctolagus cuniculus; concentration relaxing KCl-contracted strain to 50%; cumulative administration; read-out: V.R. (ED50)
Description: The specimen was suspended by loading a strain in Krebs-Henseleit solution through which an oxygen gas containing 5% carbon dioxide was bubbled. The specimen was contracted by adding potassium chloride to maintain a predetermined strain. Thereafter, a test compound was cumulatively administrated.

[3] = molecular target: Calmodulin-Dependent Phosphodiesterase (Ca^2+ PDE); test: Calmodulin-Dependent Phosphodiesterase Inhibition (Ca^2+ PDE); assay type: biochemical, rat; settings: [^3 H]-cGMP, 30° C.
Protocol: Phosphodiesterase (Ca^2+ PDE)Ca^2+ PDE was partially purified from the brain of rat by DEAE-Sepharose column chromatography.
Calmodulin was purified from the calf brain using a calmodulin inhibitor W-7 affinity column.
A reaction mixture contained 20 μl of 500 mM Tris-HCl (pH 8.0), 20 μl of 50 mM MgCl2, 20 μl of 2 mM CaCl2 (or 10 mM EGTA), 20 μl of 1 mg/ml bovine serum albumin, PDE, […] of calmodulin, test sample and distilled water to make total volume 200 μl. To the mixture was added 20 μl of 4 μM [^3 H]-cGMP (2.5 μCi/ml), the mixture was incubated at 30° C. for 15 minutes, and then heated in boiling water for 3 to 5 minutes to terminate the reaction, and cooled in ice-water bath. 20 μg of 5'-nucleotidase (Snake venum) was added to the mixture, and the mixture was again incubated at 30° C. for 10 minutes. After addition of about 2 ml of water, the sample was applied to a cation exchange resin column (Biorad AG.AG50W-X4 to adsorbe the [^3 H]-guanosine and additionally about 2 ml of washing water for the sample was added to the column. The column was washed with about 20 ml of water, and the adsorbed [^3 H]-guanosine was eluted with 3 ml of 3N NH4 OH, and the elute was directly received by a vial. After an addition of 10 ml of an emulsified scintillation solution (ACS-II, AMERSHAM) the radio activity was measured by a scintillation counter LS7500 (Beckmann). The enzyme activity in the presence of calmodulin was taken as […], and a concentration of a test compound in μM which provides a 50% inhibition was expressed as IC50.

| SMILES | IC50 [1] [µM] | EC50 [2] [µM] | IC50 [3] [µM] |
| --- | --- | --- | --- |
| O=C(OCc1ccccc1)N1CCCN(C(=O)[C@H](Cc2ccc(O)cc2)NS(=O)(=O)c2cccc3cnccc23)CC1 [Example 123, 1-Benzyloxycarbonyl-4-[N-(5-Isoquinolinesulfonyl)Tyrosyl]Homopiperazine] | 22 | 4.8 |  |
| O=S(=O)(Nc1ccccc1NCC=Cc1cccnc1)c1cccc2cnccc12 [Example 145, N-{2-[3-(3-pyridyl)allylamino]phenyl}-5-isoquinolinesulfonamide] | 12 |  |  |
| O=S(=O)(Nc1ncccc1NCC=Cc1ccc(Cl)cc1)c1cccc2cnccc12 [Example 147, 3-(4-Chlorocinnamylamino)-2-(5-Isoquinolinesulfonylamino)Pyridine] |  | 1.2 | 42 |
| CC(C=Cc1ccc(Cl)cc1)NCCNS(=O)(=O)c1cccc2cnccc12 (stereo not shown) [Example 153] | 25 | 1.5 |  |
| CC(C=Cc1ccccc1)NCCNS(=O)(=O)c1cccc2cnccc12 (stereo not drawn) [Example 154, N-[2-(α-Methylcinnamylamino)Ethyl]-5-Isoquinolinesulfonamide] | 60 |  |  |
| CC(C=Cc1ccc(F)cc1F)NCCNS(=O)(=O)c1cccc2cnccc12 (stereo not shown) [Example 155] | 55 | 4.1 |  |
| CC(C=Cc1ccccc1[N+](=O)[O-])NCCNS(=O)(=O)c1cccc2cnccc12 (stereo not shown) [Example 158] |  | 17 | 21 |
| Cc1ccc(C=CC(C)NCCNS(=O)(=O)c2cccc3cnccc23)cc1 (stereo not shown) [Example 160] | 56 | 1.8 |  |
| O=S(=O)(NCCNCC=Cc1ccc(F)cc1)c1cccc2cnccc12 [Example 175, N-[2-(4-Fluorocinnamylamino)ethyl]-5-Isoquinolinesulfonamide] |  | 2 | 13 |
| COc1ccc(C=CCNCCNS(=O)(=O)c2cccc3cnccc23)cc1 [Example 178, N-[2-(4-Methoxycinnamylamino)ethyl]-5-Isoquinolinesulfonamide] |  | 2.4 | 50 |
| O=S(=O)(NCCNCC=CC=Cc1ccc(C(F)(F)F)cc1)c1cccc2cnccc12 [Example 180, N-{2-[5-(4-Trifluoromethylphenyl)-2,4-Pentadienylamino]Ethyl}-5-Isoquinolinesulfonamide] |  | 1.8 | 4.8 |
| O=S(=O)(NCCNCC=Cc1cccc2ccccc12)c1cccc2cnccc12 [Example 184, N-{2-[3-(1-Naphthyl)-2-Propenylamino]ethyl}-5-Isoquinolinesulfonamide] |  | 2.8 | 12 |
| O=S(=O)(NCCNCC#Cc1ccc(Cl)cc1)c1cccc2cnccc12 [Example 189-I, N-{2-[3-(4-Chlorophenyl)-2-Propynylamino]Ethyl}-5-Isoquinolinesulfonamide] |  | 0.22 | 2.7 |
| O=S(=O)(c1cccc2cnccc12)N(CC#Cc1ccc(Cl)cc1)CCNCC#Cc1ccc(Cl)cc1 [Example 189-III] |  | 0.29 | 1 |
| O=S(=O)(c1cccc2cnccc12)N1CCN(CC=Cc2ccc(Cl)cc2)CC1 [Example 191, 1-(4-Chlorocinnamyl)-4-(5-Isoquinolinesulfonyl)Piperazine] |  | 1.9 | 26 |
| CCN(CC=Cc1ccc(Cl)cc1)CCN(CC)S(=O)(=O)c1cccc2cnccc12 [Example 192, N-Ethyl-N-[2-(4-Chloro-N-Ethylcinnamylamino)Ethyl]-5-Isoquinolinesulfonamide] |  | 0.12 | 84 |
| O=CN(CC=Cc1ccc(Cl)cc1)CCNS(=O)(=O)c1cccc2cnccc12 [Example 193, N-[2-(4-Chloro-N-Formylcinnamylamino)ethyl]-5-Isoquinolinesulfonamide] |  | 3.2 | 12 |

Further lines, results first:

| IC50 [1] [µM] | EC50 [2] [µM] | IC50 [3] [µM] | SMILES |
| --- | --- | --- | --- |
| 10 |  |  | Cc1ccc(S(=O)(=O)N(C)c2ccc(CC(C(=O)N3CCN(c4ccccc4)CC3)N(C)S(=O)(=O)c3cccc4cnccc34)cc2)cc1 (stereo not shown) [Example 26, 1-{N-(5-isoquinolinesulfonyl)-N-methyl-p-[N'-methyl-N'-(p-toluenesulfonyl)amino]phenylalanyl}-4-phenylpiperazine] |
| 73 | 7.6 |  | O=C(OCc1ccccc1)N1CCN(C(=O)[C@H](Cc2ccc(O)cc2)NS(=O)(=O)c2cccc3cnccc23)CC1 [Example 29, 1-Benzyloxycarbonyl-4-[N-(5-Isoquinolinesulfonyl)Tyrosyl]Piperazine] |
| 4.7 |  |  | O=S(=O)(NC(Cc1ccc(O)cc1)CN1CCN(c2ncccn2)CC1)c1cccc2cnccc12 (stereo not shown) [Example 40, N-{1-(p-hydroxybenzyl)-2-[4-(2-pyrimidyl)piperazinyl]ethyl}-5-isoquinolinesulfonamide] |
| 10 | 1.8 |  | CN(C(Cc1ccc(OS(=O)(=O)c2cccc3cnccc23)cc1)CN1CCN(c2ncccn2)CC1)S(=O)(=O)c1cccc2cnccc12 (stereo not shown) [Example 41, N-{1-[p-(5-isoquinolinesulfonyloxy)benzyl]-2-[4-(2-pyrimidyl)piperazinyl]ethyl}-N-methyl-5-isoquinolinesulfonamide] |
| 70 | 0.67 |  | CN(C(Cc1ccc(O)cc1)CN1CCN(c2ccc(F)cc2)CC1)S(=O)(=O)c1cccc2cnccc12 (stereo not shown) [Example 50, N-{1-(p-hydroxybenzyl)-2-[4-(p-fluorophenyl)piperazinyl]ethyl}-N-methyl-5-isoquinolinesulfonamide] |
| 10 |  |  | CN(C(Cc1ccc(OS(=O)(=O)c2cccc3cnccc23)cc1)CN1CCN(C(=O)OCc2ccccc2)CC1)S(=O)(=O)c1cccc2cnccc12 (stereo not shown) [Example 60, N-{2-(4-Benzyloxycarbonylpiperazinyl)-1-[P-(5-Isoquinolinesulfonyloxy)Benzyl]Ethyl}-N-Methyl-5-Isoquinolinesulfonamide] |
| 10 |  |  | CN(C(Cc1ccc(OS(=O)(=O)c2cccc3cnccc23)cc1)CN1CCN(S(=O)(=O)c2ccccc2)CC1)S(=O)(=O)c1cccc2cnccc12 (stereo not shown) [Example 61, N-{2-[(4-Benzenesulfonyl)Piperazinyl]-1-[P-(5-Isoquinolinesulfonyloxy)Benzyl]Ethyl}-N-Methyl-5-Isoquinolinesulfonamide] |
| 6 | 3.3 ± 1.4 |  | O=C(OCc1ccccc1)N1CCN(CC(Cc2ccc(O)cc2)NS(=O)(=O)c2cccc3cnccc23)CC1 (stereo not shown) [Example 68, N-[2-(4-benzyloxycarbonylpiperazinyl)-1-(p-hydroxybenzyl)ethyl]-5-isoquinolinesulfonamide] |
| 93 | 14 |  | O=C(NCc1ccccc1)N1CCN(CC(Cc2ccc(O)cc2)NS(=O)(=O)c2cccc3cnccc23)CC1 (stereo not shown) [Example 71, N-[2-(4-benzylaminocarbonylpiperazinyl)-1-(p-hydroxybenzyl)ethyl]-5-isoquinolinesulfonamide] |
| 2.8 |  |  | CN(C(Cc1ccc(OS(=O)(=O)c2cccc3cnccc23)cc1)CN1CCN(C(=O)c2ccccc2)CC1)S(=O)(=O)c1cccc2cnccc12 (stereo not shown) [Example 74, N-{2-(4-Benzoylpiperazinyl)-1-[P-(5-Isoquinolinesulfonyloxy)Benzyl]Ethyl}-N-Methyl-5-Isoquinolinesulfonamide] |
| 39 |  |  | CN(Cc1ccccc1)C1CCN(CC(Cc2ccc(O)cc2)N(C)S(=O)(=O)c2cccc3cnccc23)CC1 (stereo not shown) [Example 97, N-{2-[4-(N-Benzyl-N-Methylamino)Piperidino]-1-(P-Hydroxybenzyl)Ethyl}-N-Methyl-5-Isoquinolinesulfonamide] |
| 100 | 54 |  | CN(C(Cc1ccc(O)cc1)CN1CCCNCC1)S(=O)(=O)c1cccc2cnccc12 (stereo not shown) [Example 114, N-[1-(p-hydroxy)benzyl-2-homopiperazinylethyl]-N-methyl-5-isoquinolinesulfonamide] |
| 10 |  |  | COc1ccc(N2CCN(CC(Cc3ccc(N4C(=O)c5ccccc5C4=O)cc3)N(C)S(=O)(=O)c3cccc4cnccc34)CC2)cc1 (stereo not shown) [Example 126, N-{2-[4-(P-Methoxyphenyl)Piperazinyl]-1-(P-Phthalimidebenzyl)Ethyl}-N-Methyl-5-Isoquinolinesulfonamide] |
| 39 |  |  | COc1ccc(N2CCN(CC(Cc3ccc(N)cc3)NS(=O)(=O)c3cccc4cnccc34)CC2)cc1 (stereo not shown) [Example 127, N-{1-(p-aminovenzyl)-2-[4-(p-methoxyphenyl)piperazinyl]ethyl}-5-isoquinolinesulfonamide] |
